Structures can show the parent of a compound that is named as a salt.

The first assay deals with NRG1-ERBB4 signaling. Put plainly: Nrg1-ERBB4-PIK3R1 split TEV co-culture compound screen of the NIH Clinical Collection. The class given is cell-based, human.
Conditions: not given
With `Cl.Nc1c2c(nc3ccccc13)CCCC2`, the Z-SCORE is given as 1.29.

The same assay, now with this note: NIH Clinical Collection NCC-003 raw data; compounds ranked by Z-score; 'flagged' given instead of a Z-score.
In the case of `CC[C@]1(O)C[C@@H]2CN(CCc3c([nH]c4ccccc34)[C@@](C(=O)OC)(c3cc4c(cc3OC)N(C)[C@H]3[C@@](O)(C(N)=O)[C@H](O)[C@]5(CC)C=CCN6CC[C@]43[C@@H]65)C2)C1` [VINDESINE SULFATE], the Z-SCORE result was “flagged”. Turning to `O=C(O)c1cc(/N=N/c2ccc(S(=O)(=O)Nc3ccccn3)cc2)ccc1O` [SULFASALAZINE], the Z-SCORE is on record as -2.84.

As to `Cc1nnc2n1-c1ccc(Cl)cc1C(c1ccccc1)=NC2` [Alprazolam], the Z-SCORE is recorded as -2.27. Turning to `CC(C)[C@]12O[C@H]1[C@@H]1O[C@]13[C@]1(O[C@H]1C[C@H]1C4=C(CC[C@@]13C)C(=O)OC4)[C@@H]2O` [TRIPTOLIDE], the Z-SCORE entry is recorded as “flagged”. `COCc1c(C(C)C)nc(C(C)C)c(/C=C/[C@@H](O)C[C@@H](O)CC(=O)[O-])c1-c1ccc(F)cc1.[Na+]` [CERIVASTATIN Na]: the Z-SCORE entry was “flagged”. Still for that read-out and setting: the same measure for `OCCOCCN1CCN(C2=Nc3ccccc3Sc3ccccc32)CC1` [QUETIAPINE HEMIFUMARATE]: -1.26.

Staying with this assay, now noted: compound screen of the NIH Clinical Collection, sheet raw data NCC-003; compounds ranked by Z-score.
In the case of `C#C[C@]1(O)CC[C@H]2[C@@H]3[C@H](C)CC4=C(CCC(=O)C4)[C@H]3CC[C@@]21C` [TIBOLONE], the Z-SCORE is 2.26. For the molecule `Cc1nccn1CC1CCc2c(c3ccccc3n2C)C1=O.Cl` (centres unmarked) [ONDANSETRON HYDROCHLORIDE], the Z-SCORE came out at 0.51. Turning to `CCC(=O)O[C@]1(C(=O)SCF)[C@H](C)C[C@H]2[C@@H]3C[C@H](F)C4=CC(=O)C=C[C@]4(C)[C@@]3(F)[C@@H](O)C[C@@]21C` [FLUTICASONE PROPIONATE], the Z-SCORE was -0.31. On the same count and under the same terms, the figure for `CN(C)CCCSc1ccccc1NC(=O)/C=C/c1ccccc1` [Cinanserin] is -0.77. Regarding `NC(=O)C[S+]([O-])C(c1ccccc1)c1ccccc1` (centres unmarked) [Modafinil], the Z-SCORE worked out at 0.43.

Molecule `Clc1ccccc1C(c1ccccc1)(c1ccccc1)n1ccnc1` [CLOTRIMAZOLE] returned a Z-SCORE of -0.73. In turn, `C=C1/C(=C\C=C2/CCC[C@]3(C)[C@@H]([C@H](C)/C=C/[C@@H](O)C4CC4)CC[C@@H]23)C[C@@H](O)C[C@@H]1O` [CALCIPOTRIOL] returned a Z-SCORE of -0.04. In turn, `C[C@]12CC[C@@H]3c4ccc(O)cc4CC[C@H]3[C@@H]1CC[C@@H]2O` [BETA-ESTRADIOL] registered a Z-SCORE of 0.81. Turning to `C[C@]12CC[C@@H]3c4ccc(OS(=O)(=O)[O-])cc4CC[C@H]3[C@@H]1CCC2=O.[Na+]`, the Z-SCORE was 0.37. `Cc1c(O)cccc1C(=O)N[C@@H](CSc1ccccc1)[C@H](O)CN1C[C@H]2CCCC[C@H]2C[C@H]1C(=O)NC(C)(C)C` [NELFINAVIR MESYLATE] returned a Z-SCORE of 0.24. On the same count and under the same terms, the same measure for `O=C(O)CCNC(=O)c1ccc(/N=N/c2ccc(O)c(C(=O)O)c2)cc1` [BALSALAZIDE]: 0.84. Consider `CN1CCC(=C2c3ccccc3CCc3sccc32)CC1` [Pizotyline], for which the Z-SCORE was -0.22. `C[C@]12CC[C@H](O)CC1=CC[C@@H]1[C@@H]2CC[C@]2(C)C(=O)CC[C@@H]12` [DEHYDROEPIANDROSTERONE] had a Z-SCORE of 0.4. As to `CC[C@@H]1C(=O)OC[C@@H]1Cc1cncn1C` [PILOCARPINE HYDROCHLORIDE], the Z-SCORE is -0.77. Consider `c1ccc2c(c1)Nc1ccccc1S2` [PHENOTHIAZINE], for which the Z-SCORE is recorded as -0.03.

Molecule `CNCC[C@@H](Oc1ccccc1C)c1ccccc1` [ATOMOXETINE HCl] registered a Z-SCORE of 0.83.

`c1ccc2c3c([nH]c2c1)CNCC3` [TRYPTOLINE] registered a Z-SCORE of 0.19. Molecule `O=C1c2cccc3c2[C@H](CCC3)CN1[C@@H]1CN2CCC1CC2` [PALONOSETRON HCl] displayed a Z-SCORE of 0.77. With `CN1CCN(C2=Nc3cc(F)ccc3Cc3ccccc32)CC1` [Fluperlapine], the Z-SCORE is on record as -0.5. In turn, `CC[C@@H]1C=CC=CC[C@H](C)[C@@H](O)[C@@H](C)C(=O)[C@H](C)[C@@H](O)[C@H](C)C(=O)[C@H](C)[C@@H](O)[C@H](C)C=CC(=O)O[C@H]2[C@@H](C)[C@@H](CC1)O[C@@]1(CC[C@@H](C)[C@@H](C[C@H](C)O)O1)[C@@H]2C` [[…]] displayed a Z-SCORE of -0.54. The molecule `COc1ccccc1N1CCN(CCCNc2cc(=O)n(C)c(=O)n2C)CC1` [URAPIDIL HYDROCHLORIDE] registered a Z-SCORE of 0.51. Take `CC(C)(C)NCC(O)c1ccc(O)c(CO)c1.CC(C)(C)NCC(O)c1ccc(O)c(CO)c1.O=S(=O)(O)O` (centres unmarked) [SALBUTAMOL SULFATE]: the Z-SCORE is -0.61. In turn, `O=c1ncc(F)c[nH]1` [5-fluoro-2-pyrimidone] registered a Z-SCORE of -0.03. In the case of `CC(C)CC(N(C)C)C1(c2ccc(Cl)cc2)CCC1` (centres unmarked) [Sibutramine], the Z-SCORE was -0.34. Consider `C=C1/C(=C\C=C2/CCC[C@]3(C)[C@@H]([C@H](C)CCCC(C)(C)O)CC[C@@H]23)C[C@@H](O)C[C@@H]1O` [CALCITRIOL], for which the Z-SCORE is reported as -0.48. Molecule `CC#C[C@]1(O)CC[C@H]2[C@@H]3CCC4=CC(=O)CCC4=C3[C@@H](c3ccc(N(C)C)cc3)C[C@@]21C` [MIFEPRISTONE] had a Z-SCORE of 0.02. `CN(C)CC/C=C1/c2ccccc2COc2ccc(CC(=O)O)cc21` [OLOPATADINE HCl] gave a Z-SCORE of 0.55. Same read-out and setting: the same measure for `O=c1[nH]cnc2c1ncn2[C@H]1CC[C@@H](CO)O1` [2',3'-DIDEOXYINOSINE]: -0.13; for `O=C1Nc2ccccc2/C1=C1/Nc2ccccc2C1=O` [Indirubin]: 0.67. Molecule `Cc1ncc([N+](=O)[O-])n1CCO` [METRONIDAZOLE] had a Z-SCORE of -0.28. `CCN(CC)CCOC(=O)C(O)(c1ccccc1)c1ccccc1` [BENACTYZINE HYDROCHLORIDE] returned a Z-SCORE of 2.48. The molecule `CCN1CCCC1CNC(=O)c1cc(S(=O)(=O)CC)c(N)cc1OC` (centres unmarked) [Amisulpride] registered a Z-SCORE of 0.41.

Molecule `CCOC(=O)C1(c2ccccc2)CCN(CCC(C#N)(c2ccccc2)c2ccccc2)CC1` [DIPHENOXYLATE] showed a Z-SCORE of -0.45. Take `CNCCCC12CCC(c3ccccc31)c1ccccc12.Cl` [Maprotilline HCl]: the Z-SCORE is on record as 1.18. Turning to `Cc1ncc2n1-c1ccc(Cl)cc1C(c1ccccc1F)=NC2` [MIDAZOLAM HCl], the Z-SCORE amounted to 0.91. Molecule `CC(C)c1nc(CN(C)C(=O)N[C@H](C(=O)N[C@@H](Cc2ccccc2)C[C@H](O)[C@H](Cc2ccccc2)NC(=O)OCc2cncs2)C(C)C)cs1` [RITONAVIR] came in with a Z-SCORE of -0.37.

The same assay, now with this note: compounds at 10 μM, 24 h; PC12 split TEV assay cells co-cultured with Nrg1-expressing PC12 cells; analysed with cellHTS2.
As to `COc1cc([C@@H]2c3cc4c(cc3[C@H](O)[C@H]3COC(=O)[C@H]23)OCO4)cc(OC)c1OC` [Podofilox, reference compound], the Z-SCORE entry is “flagged”. Same read-out and setting: the figure for `CCCCC(=O)O[C@H]1CC[C@H]2[C@@H]3CCc4cc(O)ccc4[C@H]3CC[C@]12C` [17-BETA-ESTRADIOL 17-VALERATE, reference compound] is -0.44; for `CCCC(C)(COC(N)=O)COC(=O)NC(C)C` (centres unmarked) [Carisoprodol, reference compound] it is -0.82; for `NC(=O)c1ncn([C@@H]2O[C@H](CO)[C@@H](O)[C@H]2O)n1` [Ribavirin, reference compound] it is 0.53. In turn, `COc1ccc2cc(CCC(C)=O)ccc2c1` [NABUMETONE, reference compound] gave a Z-SCORE of 1.61. As for `C[C@H](CS)C(=O)N1CCC[C@H]1C(=O)O` [CAPTOPRIL, reference compound], the Z-SCORE is recorded as -0.02. Molecule `CCN(CC)CCOC(=O)C1(C2CCCCC2)CCCCC1` [Dicyclomine hydrochloride, reference compound] gave a Z-SCORE of -2.03. `Nc1ncnc2c1ncn2[C@@H]1O[C@H](CO)[C@@H](O)[C@@H]1O` [Adenine 9-beta, reference compound] displayed a Z-SCORE of 1.63. For `CCOC(=O)C1=C(C)NC(C)=C(C(=O)OC)C1c1cccc(Cl)c1Cl` (centres unmarked) [Felodipine, reference compound], the Z-SCORE is on record as -1.97. `O=C(O)c1cc(=O)c2c(OCC(O)COc3cccc4oc(C(=O)O)cc(=O)c34)cccc2o1` [Cromolyn Sodium, reference compound] registered a Z-SCORE of 1.88.

For the molecule `Nc1nc(N)c2nc(-c3ccccc3)c(N)nc2n1` [Triamterene, reference compound], the Z-SCORE worked out at 0.78. With `C[C@H](CCC(=O)O)[C@H]1CC[C@H]2[C@@H]3[C@@H](O)C[C@@H]4C[C@H](O)CC[C@]4(C)[C@H]3CC[C@]12C` [URSODEOXYCHOLIC ACID, reference compound], the Z-SCORE is listed as -1.5.

For `COc1cc(C)c(/C=C/C(C)=C/C=C/C(C)=C/C(=O)O)c(C)c1C` [Acitretin, reference compound], the Z-SCORE was -0.6. On the same count and under the same terms, the same measure for `Oc1c(Cl)cc(Cl)c2cccnc12` [Chloroxine, reference compound]: “flagged”. Molecule `CCCCC(=O)O[C@]1(C(=O)CO)CC[C@H]2[C@@H]3CCC4=CC(=O)CC[C@]4(C)[C@H]3[C@@H](O)C[C@@]21C` [Westcort, reference compound] showed a Z-SCORE of -0.71.

Molecule `CCCC(CCC)C(=O)O` [Valproic Acid, reference compound] showed a Z-SCORE of -1.05. On the same count and under the same terms, the figure for `CCc1cccc2c3c([nH]c12)C(CC)(CC(=O)O)OCC3` (centres unmarked) [Etodolac, reference compound] is -0.28; for `OC(c1cc(C(F)(F)F)nc2c(C(F)(F)F)cccc12)C1CCCCN1` (centres unmarked) [Mefloquine hydrochloride, reference compound] it is “flagged”.

On to `NC12CC3CC(CC(C3)C1)C2` [Symmetrel, reference compound], for which the Z-SCORE stood at 0.15.

The molecule `CCCCNC(=O)NS(=O)(=O)c1ccc(C)cc1` [Tolbutamide, reference compound] showed a Z-SCORE of 0.32. Consider `CC(C)[N+](C)(CCOC(=O)C1c2ccccc2Oc2ccccc21)C(C)C` [Pro-Banthine, reference compound], for which the Z-SCORE is given as -0.77. `O=C(O)c1cc(-c2ccc(F)cc2F)ccc1O` [Diflunisal, reference compound] came in with a Z-SCORE of -0.6.

The values above are taken from article PMC5653977 (EMBO Molecular Medicine, 2017).
